Data reported in patent US7973047B2, “Beta-Secretase modulators and methods of use” (Amgen Inc., priority 2010, dated 2011).

Test system: Aβ40 in conditioned medium of cells stably expressing Amyloid Precursor Protein (APP)
Test: BACE cell-based assay: Aβ40 in conditioned medium by sandwich ELISA
Conditions: cell based assay data of Table 4; unit inferred; read-out: Cell Assay
Procedure: The cell-based assay measures inhibition or reduction of Aβ40 in conditioned medium of test compound treated cells expressing amyloid precursor protein.
Cells stably expressing Amyloid Precursor Protein (APP) were plated at a density of 40K cells/well in 96 well plates (Costar). The cells were cultivated for 24 hours at 37° C. and 5% CO2 in DMEM supplemented with 10% FBS. The test compounds were then added to cells in 10-point dose response concentrations with the starting concentration being either 100 μM or 10 μM. The compounds were diluted from stock solutions in DMSO and the final DMSO concentration of the test compounds on cells was 0.1%. After 24 h of incubation with the test compounds the supernatant conditioned media was collected and the Aβ40 levels were determined using a sandwich ELISA. The ICso of the compound was calculated from the percent of control or percent inhibition of Aβ40 as a function of the concentration of the test compound.
The sandwich ELISA to detect Aβ40 was performed in 96 well microtiter plates, which were pre-treated with goat anti-rabbit IgG (Pierce). The capture and detecting antibody pair that were used to detect Aβ40 from cell supernatants were affinity purified pAb40 (Biosource) and biotinylated 6E10 (Signet Labs Inc.), respectively. The optimal concentration for the pAb40 antibody was 3 μg/ml in Superblock/TBS (Pierce) that was supplemented with 0.05% Tween 20 (Sigma).
Cellular supernatants were incubated with the capture antibody for 3 h at 4° C., followed by 3 wash steps in TBS-tween (0.05%). The detecting antibody incubation was for 2 h at 4° C., again followed by the wash steps as described previously. The final readout of the ELISA is Time-Resolved Fluorescence (counts per minute) using Delfia reagents Streptavidin-Europium and Enhancement solutions (Perkin Elmer) and the Victor 2 multilabel counter (Perkin Elmer).

Going from `CC(=O)N[C@@H](Cc1cc(F)cc(F)c1)[C@H](O)CN[C@H]1CC2(CCC2)Oc2ccc(-c3cn(C)nn3)cc21` [compound 520] to `CC(=O)N[C@@H](Cc1cc(F)cc(F)c1)[C@H](O)CN[C@H]1CC2(CCC2)Oc2ccc(-c3ncco3)cc21` [compound 544], the IC50 falls from 2160 nM to 631 nM (3.4-fold).

Compared with `CC(=O)N[C@@H](Cc1ccccc1)[C@H](O)CN[C@H]1CC2(CCC2)Oc2ccc(-c3cn(C)nn3)cc21` [compound 521], `CC(=O)N[C@@H](Cc1ccccc1)[C@H](O)CN[C@H]1CC2(CCC2)Oc2ncc(CC(C)C)cc21` [compound 523] is lower in IC50: at least 10000 nM for the first, 4.09 nM for the second. The second is the more potent here.

`CC(=O)N[C@@H](Cc1cccc(C#N)c1)[C@H](O)CN[C@H]1CC2(CCC2)Oc2ncc(CC(C)(C)F)cc21` [compound 524] and `CC(=O)N[C@@H](Cc1cccc(C#N)c1)[C@H](O)CN[C@H]1CC2(CCC2)Oc2ncc(CC(C)(C)C)cc21` [compound 540, N-((1S,2R)-1-((3-cyanophenyl)methyl)-3-(((4′S)-6′-(2,2-dimethylpropyl)-3′,4′-dihydrospiro[cyclobutane-1,2′-pyrano[2,3-b]pyridin]-4′-yl)amino)-2-hydroxypropyl)acetamide] are within 1.5-fold of each other in IC50: 2.42 nM for the first, 2.03 nM for the second.

Compared with `CC(=O)N[C@@H](Cc1cccc(F)c1)[C@H](O)CN[C@H]1CC2(CCC2)Oc2ncc(CC(C)(C)F)cc21` [compound 525], `CCc1cnc2c(c1)[C@@H](NC[C@@H](O)[C@H](Cc1cccc(F)c1)NC(C)=O)CC1(CCC1)O2` [compound 566] is 7.4-fold higher in IC50: 3.94 nM for the first, 29 nM for the second. The first is the more potent here.

`CC(=O)N[C@@H](Cc1cccc(C#N)c1)[C@H](O)CN[C@H]1CC(C)(C)Oc2ccc(Br)cc21` [compound 526] and `COCC(=O)N[C@@H](Cc1cccc(C#N)c1)[C@H](O)CN[C@H]1CC(C)(C)Oc2ccc(Br)cc21` [compound 527] are within 1.5-fold of each other in IC50: 116 nM for the first, 120 nM for the second.

Going from `CN(C)CC(=O)N[C@@H](Cc1cccc(C#N)c1)[C@H](O)CN[C@H]1CC(C)(C)Oc2ccc(Br)cc21` [compound 528] to `CCc1cc(Br)c2c(c1)[C@@H](NC[C@@H](O)[C@H](Cc1cccc(C#N)c1)NC(C)=O)CC(C)(C)O2` [compound 529], the IC50 falls from 1120 nM to 33.9 nM (33-fold). The second is the more potent here.

Going from `CCc1cc2c(c(N3CCOCC3)c1)OC(C)(C)C[C@@H]2NC[C@@H](O)[C@H](Cc1cccc(C#N)c1)NC(C)=O` [compound 532] to `CC(=O)N[C@@H](Cc1ccccc1)[C@H](O)CN[C@H]1CC2(CCC2)Oc2c1cc(CC(C)(C)C)cc2N1CCOCC1` [compound 537], the IC50 rises from 11.2 nM to 1970 nM (180-fold).

First: CCc1cc(NC)c2c(c1)[C@@H](NC[C@@H](O)[C@H](Cc1ccccc1)NC(C)=O)CC(C)(C)O2 [compound 535]
Second: CC(=O)N[C@@H](Cc1ccccc1)[C@H](O)CN[C@H]1CC(C)(C)Oc2ncc(CC(C)(C)C)cc21 [compound 545]
The IC50 of the first is 200-fold higher: 924 nM for the first, 4.61 nM for the second.

Compared with `CC(=O)N[C@@H](Cc1ccc(F)cc1)[C@H](O)CN[C@H]1CC2(CCC2)Oc2c1cc(CC(C)(C)C)cc2N1CCOCC1` [compound 536], `CC(=O)N[C@@H](Cc1ccc(F)cc1)[C@H](O)CN[C@H]1CC2(CCCC2)Oc2ncc(CC(C)(C)C)cc21` [compound 547] is 60-fold lower in IC50: 2090 nM for the first, 34.8 nM for the second. The second is the more potent here.

Going from `CC(=O)N[C@@H](CC(C)C)[C@H](O)CN[C@H]1CC2(CCC2)Oc2ncc(CC(C)(C)C)cc21` [compound 538, N-((1S)-1-((1R)-2-(((4′S)-6′-(2,2-dimethylpropyl)-3′,4′-dihydrospiro[cyclobutane-1,2′-pyrano[2,3-b]pyridin]-4′-yl)amino)-1-hydroxyethyl)-3-methylbutyl)acetamide] to `C=C(C)C[C@H](NC(C)=O)[C@H](O)CN[C@H]1CC2(CCC2)Oc2ncc(CC(C)(C)C)cc21` [compound 539, N-((1S)-1-((1R)-2-(((4′S)-6′-(2,2-dimethylpropyl)-3′,4′-dihydrospiro[cyclobutane-1,2′-pyrano[2,3-b]pyridin]-4′-yl)amino)-1-hydroxyethyl)-3-methyl-3-buten-1-yl)acetamide], the IC50 falls from 177 nM to 50.3 nM (3.5-fold).

Compared with `CC(=O)N[C@@H](Cc1ccccc1)[C@H](O)CN[C@H]1CC2(CCC2)Cc2ncc(C)cc21` [compound 541, N-((1S,2R)-2-hydroxy-3-(((5′S)-3′-methyl-5′,8′-dihydro-6′H-spiro[cyclobutane-1,7′-quinolin]-5′-yl)amino)-1-(phenylmethyl)propyl)acetamide], `CC(=O)N[C@@H](Cc1cccc(C#N)c1)[C@H](O)CN[C@H]1CC2(CCC2)Cc2ncc(C)cc21` [compound 542, N-((1S,2R)-1-((3-cyanophenyl)methyl)-2-hydroxy-3-(((5′S)-3′-methyl-5′,8′-dihydro-6′H-spiro[cyclobutane-1,7′-quinolin]-5′-yl)amino)propyl)acetamide] is 10-fold lower in IC50: 651 nM for the first, 64.6 nM for the second. The second is the more potent here.

Compared with `CC(=O)N[C@@H](Cc1cccc(C#N)c1)[C@H](O)CN[C@H]1CC(C)(C)Cc2ncc(C)cc21` [compound 543], `CC(=O)N[C@@H](Cc1cccc(F)c1)[C@H](O)CN[C@H]1CC(C)(C)Oc2ncc(CC(C)(C)C)cc21` [compound 546] is 74-fold lower in IC50: 124 nM for the first, 1.67 nM for the second. The second is the more potent here.

First: CC(=O)N[C@@H](Cc1cc(F)cc(F)c1)[C@H](O)CN[C@H]1CC2(CCCC2)Oc2ncc(CC(C)(C)C)cc21 [compound 548]
Second: CC(=O)N[C@@H](Cc1cccc(F)c1)[C@H](O)CN[C@H]1CC2(CCCC2)Oc2ncc(CC(C)(C)C)cc21 [compound 549]
The IC50 of the first is 2.4-fold lower: 2.83 nM for the first, 6.93 nM for the second.

First: CC(=O)N[C@@H](Cc1ccc(F)cc1)[C@H](O)CN[C@H]1CC2(CCC2)Oc2ncc([C@H](F)C(C)C)cc21 [compound 552, N-((1S,2R)-3-(((4′S)-6′-((1R)-1-fluoro-2-methylpropyl)-3′,4′-dihydrospiro[cyclobutane-1,2′-pyrano[2,3-b]pyridin]-4′-yl)amino)-1-((4-fluorophenyl)methyl)-2-hydroxypropyl)acetamide]
Second: CC(=O)N[C@@H](Cc1ccc(F)cc1)[C@H](O)CN[C@H]1CC2(CCC2)Oc2ncc([C@@H](F)C(C)C)cc21 [compound 553]
The IC50 of the first is 4.6-fold higher: 1260 nM for the first, 272 nM for the second. The second is the more potent here.

First: CC(=O)N[C@@H](Cc1cccc(F)c1)[C@H](O)CN[C@H]1CC2(CCC2)Oc2ncc([C@@H](F)C(C)C)cc21 [compound 555]
Second: CC(=O)N[C@@H](Cc1cccc(F)c1)[C@H](O)CN[C@H]1CC2(CCC2)Nc2ccc(CC(C)(C)C)cc21 [compound 561, N-((1S,2R)-3-(((4′S)-6′-(2,2-dimethylpropyl)-3′,4′-dihydro-1′H-spiro[cyclobutane-1,2′-quinolin]-4′-yl)amino)-1-((3-fluorophenyl)methyl)-2-hydroxypropyl)acetamide]
The IC50 of the first is 49-fold higher: 1430 nM for the first, 29.4 nM for the second.

`CC(=O)N[C@@H](Cc1ccc(F)cc1)[C@H](O)CN[C@H]1CC2(CCC2)Nc2ccc(CC(C)(C)C)cc21` [compound 559, N-((1S,2R)-3-(((4′S)-6′-(2,2-dimethylpropyl)-3′,4′-dihydro-1′H-spiro[cyclobutane-1,2′-quinolin]-4′-yl)amino)-1-((4-fluorophenyl)methyl)-2-hydroxypropyl)acetamide] and `CC(=O)N[C@@H](Cc1ccc(F)c(Br)c1)[C@H](O)CN[C@H]1CC2(CCC2)Nc2ccc(CC(C)(C)C)cc21` [compound 562, N-((1S,2R)-1-((3-bromo-4-fluorophenyl)methyl)-3-(((4′S)-6′-(2,2-dimethylpropyl)-3′,4′-dihydro-1′H-spiro[cyclobutane-1,2′-quinolin]-4′-yl)amino)-2-hydroxypropyl)acetamide] are within 1.5-fold of each other in IC50: 105 nM for the first, 141 nM for the second.

Compared with `CC(=O)N[C@@H](Cc1cc(F)cc(F)c1)[C@H](O)CN[C@H]1CC2(CCC2)Nc2ccc(CC(C)(C)C)cc21` [compound 560, N-((1S,2R)-1-((3,5-difluorophenyl)methyl)-3-(((4′S)-6′-(2,2-dimethylpropyl)-3′,4′-dihydro-1′H-spiro[cyclobutane-1,2′-quinolin]-4′-yl)amino)-2-hydroxypropyl)acetamide], `CC(=O)N[C@@H](Cc1ccc(F)cc1)[C@H](O)CN[C@H]1CC2(CCCC2)C(=O)c2ccc(CC(C)(C)C)cc21` [compound 563, N-((1S,2R)-3-(((4′S)-6′-(2,2-dimethylpropyl)-1′-oxo-3′,4′-dihydro-1′H-spiro[cyclopentane-1,2′-naphthalen]-4′-yl)amino)-1-((4-fluorophenyl)methyl)-2-hydroxypropyl)acetamide] is higher in IC50: 11.7 nM for the first, at least 10000 nM for the second. The first is the more potent here.

`CC(=O)N[C@@H](Cc1ccc(F)cc1)[C@H](O)CN[C@@H]1CC2(CCCC2)C(=O)c2ccc(CC(C)(C)C)cc21` [compound 564, N-((1S,2R)-3-(((4′R)-6′-(2,2-dimethylpropyl)-1′-oxo-3′,4′-dihydro-1′H-spiro[cyclopentane-1,2′-naphthalen]-4′-yl)amino)-1-((4-fluorophenyl)methyl)-2-hydroxypropyl)acetamide] showed an IC50 of 569 nM.

Same assay, conditions: cells stably expressing APP, 24 h incubation with compound, Aβ40 in supernatant by sandwich ELISA; read-out: IC50 values in the cell-based assay (inhibition or reduction of Aβ40)

`CC(=O)N[C@@H](Cc1cc(F)cc(F)c1)[C@H](O)CN[C@H]1C[C@@]2(CCOC2)Oc2c(Br)cc(Cl)cc21` [Example 249] and `CC(=O)N[C@@H](Cc1ccccc1)[C@H](O)CN[C@H]1CC2(CCC2)Oc2ncc(C3CCCO3)cc21` (some centres unmarked) [Example 384] cannot be ordered by IC50: at most 5000 nM for the first, at most 5000 nM for the second.

`CCc1ccc2c(c1)[C@@H](NC[C@@H](O)[C@H](Cc1cccc(Br)c1)NC(=O)CCCCCCNC(=O)OCc1ccccc1)CC1(CCC1)O2` [Example 337] showed an IC50 of at most 5000 nM.
